This note sets out measurements from patent US8268990B2, “Compounds” (AstraZeneca AB, priority 2007, dated 2012).

For this experiment, the target named is T1, Recombinant human TLR7 (Homo sapiens, UniProt Q9NYK1).
T1 construct: expressed in transfected cells; host or cells: HEK293 cell line stably expressing the pNiFty2-SEAP reporter plasmid; TLR7 in vector pUNO, blasticidin selection
T1 sequence (Q9NYK1 27-1049): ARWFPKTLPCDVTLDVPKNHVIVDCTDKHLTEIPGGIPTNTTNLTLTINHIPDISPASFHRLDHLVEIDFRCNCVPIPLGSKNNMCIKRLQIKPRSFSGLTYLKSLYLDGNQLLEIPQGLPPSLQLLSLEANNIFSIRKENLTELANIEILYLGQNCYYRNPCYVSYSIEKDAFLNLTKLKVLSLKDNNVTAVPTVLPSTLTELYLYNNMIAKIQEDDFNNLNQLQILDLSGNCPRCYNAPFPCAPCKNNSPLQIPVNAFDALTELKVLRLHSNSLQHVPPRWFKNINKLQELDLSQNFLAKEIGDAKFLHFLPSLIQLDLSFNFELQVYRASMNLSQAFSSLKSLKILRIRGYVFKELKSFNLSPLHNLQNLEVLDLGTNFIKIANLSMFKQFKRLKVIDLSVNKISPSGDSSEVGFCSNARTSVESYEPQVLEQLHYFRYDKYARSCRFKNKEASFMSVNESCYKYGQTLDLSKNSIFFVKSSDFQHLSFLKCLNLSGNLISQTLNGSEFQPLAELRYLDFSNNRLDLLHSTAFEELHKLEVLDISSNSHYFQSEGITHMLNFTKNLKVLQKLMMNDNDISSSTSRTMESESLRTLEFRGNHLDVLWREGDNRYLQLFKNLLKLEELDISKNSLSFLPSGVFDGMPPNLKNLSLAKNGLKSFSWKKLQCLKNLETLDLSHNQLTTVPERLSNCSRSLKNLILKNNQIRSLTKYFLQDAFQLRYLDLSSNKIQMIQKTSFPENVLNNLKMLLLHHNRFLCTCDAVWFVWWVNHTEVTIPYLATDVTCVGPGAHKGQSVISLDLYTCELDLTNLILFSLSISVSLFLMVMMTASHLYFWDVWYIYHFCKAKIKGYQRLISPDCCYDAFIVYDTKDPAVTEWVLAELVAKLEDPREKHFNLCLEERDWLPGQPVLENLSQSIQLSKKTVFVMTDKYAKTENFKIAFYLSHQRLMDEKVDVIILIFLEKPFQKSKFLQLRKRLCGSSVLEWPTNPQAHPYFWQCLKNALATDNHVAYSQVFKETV
Description: Human TLR7 Assay (SEAP reporter).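 Further: SEAP driven by an NFkB-responsive composite promoter, pEC50 read at half of each compound's own maximal SEAP induction.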 Particulars: HEK293 cell line stably expressing human TLR7 and pNiFty2-SEAP reporter; SEAP induction after overnight incubation at 37° C., 0.1% (v/v) DMSO. The class given is cell-based.

For orientation: EC50 means the concentration at which the effect is half-maximal. Regarding `CCCCCNc1nc(N)nc(C)c1Cc1ccc(CC(=O)OCCN2CCOCC2)cc1` [Example 35, 2-Morpholinoethyl 2-(4-((2-amino-4-methyl-6-(pentylamino)pyrimidin-5-yl)methyl)phenyl)acetate], the concentration for a half-maximal effect (EC50) was 0.251 µM.

As to `CCCCCNc1nc(N)nc(C)c1CCCN(Cc1cccc(CC(=O)OC)c1)C(=O)CN(C)C` [Example 3, Methyl 2-(3-((N-(3-(2-amino-4-methyl-6-(pentylamino)pyrimidin-5-yl)propyl)-2-(dimethylamino)acetamido)methyl)phenyl)acetate], the 50% effective concentration (EC50) is 0.631 µM.

As for `CCC[C@@H](CCO)Nc1nc(N)nc(C)c1Cc1ccc(CC(=O)OC)cc1F` [Example 45, (S)-Methyl 2-(4-((2-amino-4-(1-hydroxyhexan-3-ylamino)-6-methylpyrimidin-5-yl)methyl)-3-fluorophenyl)acetate], the EC50 is 0.0501 µM.

With `CCCCCNc1nc(N)nc(C)c1Cc1ccc(CC(=O)OCCN2CCN(C)CC2)cc1` [Example 38, 2-(4-Methylpiperazin-1-yl)ethyl 2-(4-((2-amino-4-methyl-6-(pentylamino)pyrimidin-5-yl)methyl)phenyl)acetate], the EC50 is 0.126 µM. The value for `CCCCNc1nc(N)nc(C)c1Cc1ccc(CC(=O)OCC2CCN(C)CC2)cc1O` [Example 103, (1-Methylpiperidin-4-yl)methyl 2-(4-((2-amino-4-(butylamino)-6-methylpyrimidin-5-yl)methyl)-3-hydroxyphenyl)acetate] was 0.126 µM; that for `CCCCCNc1nc(N)nc(C)c1Cc1ccc(OCC(=O)OC)cc1OC` [Example 40, Methyl 2-(4-((2-amino-4-methyl-6-(pentylamino)pyrimidin-5-yl)methyl)-3-methoxyphenoxy)acetate] was 0.126 µM. The value for `CCCCCNc1nc(N)nc(C)c1Cc1ccc(CC(=O)OC)cc1OC` [Example 21, Methyl 2-(4-((2-amino-4-methyl-6-(pentylamino)pyrimidin-5-yl)methyl)-3-methoxyphenyl)acetate] was 0.0158 µM; that for `CCCCCNc1nc(N)nc(C)c1Cc1ccc(CC(=O)OCC2CCN(C)CC2)cc1` [Example 60, (1-Methylpiperidin-4-yl)methyl 2-(4-((2-amino-4-methyl-6-(pentylamino)pyrimidin-5-yl)methyl)phenyl)acetate] was 0.2 µM; that for `CCCCNc1nc(N)nc(C)c1Cc1cc(CC(=O)OCC2CCN(C)CC2)ccc1OC` [Example 83, (1-Methylpiperidin-4-yl)methyl 2-(3-((2-amino-4-(butylamino)-6-methylpyrimidin-5-yl)methyl)-4-methoxyphenyl)acetate] was 0.02 µM. In the case of `CCCCCNc1nc(N)nc(C)c1CCCN(Cc1ccc(CC(=O)OC)cc1)C(=O)CN1CCCCC1` [Example 29, Methyl 2-(4-((N-(3-(2-amino-4-methyl-6-(pentylamino)pyrimidin-5-yl)propyl)-2-(piperidin-1-yl)acetamido)methyl)phenyl)acetate], the 50% effective concentration (EC50) was 0.794 µM. To `CCC[C@@H](CCO)Nc1nc(N)nc(C)c1Cc1ccc(CC(=O)OC)cc1OC` [Example 48, (S)-Methyl 2-(4-((2-amino-4-(1-hydroxyhexan-3-ylamino)-6-methylpyrimidin-5-yl)methyl)-3-methoxyphenyl)acetate] belongs 0.002 µM; to `CCC[C@@H](CCO)Nc1nc(N)nc(C)c1Cc1cc(CC(=O)OC)ccc1F` [Example 42, (S)-Methyl 2-(3-((2-amino-4-(1-hydroxyhexan-3-ylamino)-6-methylpyrimidin-5-yl)methyl)-4-fluorophenyl)acetate], 0.631 µM. For `CCCCCNc1nc(N)nc(C)c1Cc1ccc(CC(=O)OCCCCN(C)C)cc1` [Example 57, 4-(Dimethylamino)butyl 2-(4-((2-amino-4-methyl-6-(pentylamino)pyrimidin-5-yl)methyl)phenyl)acetate], the EC50 was 0.126 µM. The value for `CCC[C@@H](CO)Nc1nc(N)nc(C)c1Cc1ccc(CC(=O)OC)cc1O` [Example 88, (S)-Methyl 2-(4-((2-amino-4-(1-hydroxypentan-2-ylamino)-6-methylpyrimidin-5-yl)methyl)-3-hydroxyphenyl)acetate] was 0.1 µM; that for `CCCCNc1nc(N)nc(C)c1Cc1ccc(CC(=O)OCC2CCN(C)CC2)cc1OC` [Example 72, (1-Methylpiperidin-4-yl)methyl 2-(4-((2-amino-4-(butylamino)-6-methylpyrimidin-5-yl)methyl)-3-methoxyphenyl)acetate] was 0.0158 µM; that for `CCCC[C@@H](CCO)Nc1nc(N)nc(C)c1Cc1ccc(CC(=O)OC)cc1` [Example 50, (S)-Methyl 2-(4-((2-amino-4-(1-hydroxyheptan-3-ylamino)-6-methylpyrimidin-5-yl)methyl)phenyl)acetate] was 0.158 µM. `CCCCNc1nc(N)nc(C)c1Sc1ccc(CC(=O)OCCCCN2CCCC2)cc1` [Example 96, 4-(Pyrrolidin-1-yl)butyl 2-(4-(2-amino-4-(butylamino)-6-methylpyrimidin-5-ylthio)phenyl)acetate]: the EC50 was 0.0501 µM. `CCC[C@@H](CCO)Nc1nc(N)nc(C)c1Cc1ccc(CC(=O)OCCCCN(C)C)cc1` [Example 94, (S)-4-(Dimethylamino)butyl 2-(4-((2-amino-4-(1-hydroxyhexan-3-ylamino)-6-methylpyrimidin-5-yl)methyl)phenyl)acetate]: the EC50 was 0.126 µM. `CCC[C@@H](CCO)Nc1nc(N)nc(C)c1Cc1ccc(CC(=O)OCCC2CCN(C)CC2)cc1F` [Example 100, (S)-2-(1-Methylpiperidin-4-yl)ethyl 2-(4-((2-amino-4-(1-hydroxyhexan-3-ylamino)-6-methylpyrimidin-5-yl)methyl)-3-fluorophenyl)acetate]: the EC50 is 0.0316 µM. To `CCCCCNc1nc(N)nc(C)c1Cc1ccc(CC(=O)OC)cc1F` [Example 22, Methyl 2-(4-((2-amino-4-methyl-6-(pentylamino)pyrimidin-5-yl)methyl)-3-fluorophenyl)acetate] belongs 0.631 µM; to `CCCCCNc1nc(N)nc(C)c1CCCN(Cc1ccc(CC(=O)OC)cc1)C(=O)CN(C)CCOC` [Example 15, Methyl 2-(4-((N-(3-(2-amino-4-methyl-6-(pentylamino)pyrimidin-5-yl)propyl)-2-((2-methoxyethyl)(methyl)amino)acetamido)methyl)phenyl)acetate], 0.398 µM. The value for `CCCC[C@@H](CCO)Nc1nc(N)nc(C)c1Cc1ccc(CC(=O)OC)cc1F` [Example 33, (S)-Methyl 2-(4-((2-amino-4-(1-hydroxyheptan-3-ylamino)-6-methylpyrimidin-5-yl)methyl)-3-fluorophenyl)acetate] was 0.0501 µM. As to `CCCCNc1nc(N)nc(C)c1Cc1ccc(CC(=O)OCCCCN(C)C)cc1O` [Example 102, 4-(Dimethylamino)butyl 2-(4-((2-amino-4-(butylamino)-6-methylpyrimidin-5-yl)methyl)-3-hydroxyphenyl)acetate], the concentration for a half-maximal effect (EC50) is 0.1 µM. As for `CCCCCNc1nc(N)nc(C)c1Cc1ccc(CC(=O)OCC2CCNCC2)cc1` [Example 67, Piperidin-4-ylmethyl 2-(4-((2-amino-4-methyl-6-(pentylamino)pyrimidin-5-yl)methyl)phenyl)acetate], the 50% effective concentration (EC50) is 0.794 µM. On to `CCC[C@@H](CO)Nc1nc(N)nc(C)c1Cc1ccc(CC(=O)OCCCCN(C)C)cc1` [Example 70, (S)-4-(Dimethylamino)butyl 2-(4-((2-amino-4-(1-hydroxypentan-2-ylamino)-6-methylpyrimidin-5-yl)methyl)phenyl)acetate], for which the EC50 is 1.26 µM.

As for `CCCCCNc1nc(N)nc(C)c1CCCNC(=O)Cc1cccc(CC(=O)OC)c1` [Example 24, Methyl 2-(3-(2-(3-(2-amino-4-methyl-6-(pentylamino)pyrimidin-5-yl)propylamino)-2-oxoethyl)phenyl)acetate], the EC50 is 1 µM. Turning to `CCCCNc1nc(N)nc(C)c1Cc1ccc(CC(=O)OCCCCO)cc1OC` [Example 91, 4-Hydroxybutyl 2-(4-((2-amino-4-(butylamino)-6-methylpyrimidin-5-yl)methyl)-3-methoxyphenyl)acetate], the EC50 was 0.02 µM.

On to `CCC[C@@H](CO)Nc1nc(N)nc(C)c1Cc1ccc(CC(=O)OC)cc1F` [Example 47, (S)-Methyl 2-(4-((2-amino-4-(1-hydroxypentan-2-ylamino)-6-methylpyrimidin-5-yl)methyl)-3-fluorophenyl)acetate], for which the concentration for a half-maximal effect (EC50) is 0.501 µM.
